Test results published in US20050267182A1, “Urea derivatives as FLT-3 modulators” (Ambit Biosciences Corporation, priority 2003, published 2005).

How the values were obtained:
FLT3 = molecular target: T1, FLT3 (Homo sapiens, UniProt P36888); test: Binding constant (Kd) measurement, phage-displayed kinase competition binding assay; conditions: for Binding Assay: FLT3(JMminus): FLT3(JMminus) construct; for Binding Assay: FLT3(DKIN): FLT3(DKIN) construct
T1 construct: FLT3(DKIN); made in house
T1 sequence (P36888 610-943 limits assumed): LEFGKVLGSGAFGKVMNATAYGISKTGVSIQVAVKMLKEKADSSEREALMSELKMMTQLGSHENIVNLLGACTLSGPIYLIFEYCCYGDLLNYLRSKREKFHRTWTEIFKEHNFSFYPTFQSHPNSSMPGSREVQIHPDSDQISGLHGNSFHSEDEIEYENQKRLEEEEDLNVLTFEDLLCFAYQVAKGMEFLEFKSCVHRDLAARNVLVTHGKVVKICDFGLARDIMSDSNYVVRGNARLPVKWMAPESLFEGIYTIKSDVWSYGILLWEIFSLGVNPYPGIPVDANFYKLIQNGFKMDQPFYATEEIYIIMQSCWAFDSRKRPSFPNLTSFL
Source text: Binding Constant (Kd) Measurements for Small-Molecule-Kinase Interactions
The term “ND” represents non-determined values.

MV4,11 cells = test: FLT3 assay using MV4,11 cells (cellular proliferation, MTS); type: cell-based, human; conditions: cell assay code CS0001
How it was run: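 MV4,11 AML cells, […] switch to DMEM/10% FBS overnight, plated at 10,000 cells/well and exposed to serially diluted compounds in duplicate for 3 days at 37° C., 5% CO2. Proliferation read by MTS added for 2 h.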

CS0002 = test: Cell Assay: CS0002; type: cell-based; conditions: cell assay code CS0002
CS0005 = test: Cell Assay: CS0005; type: cell-based; conditions: cell assay code CS0005

Structure (SMILES)	Binding Assay: FLT3(JMminus) (FLT3)	Cell Assay: CS0001:IC50 (MV4,11 cells)	Cell Assay: CS0002:IC50 (CS0002)	Binding Assay: FLT3(DKIN) (FLT3)	Cell Assay: CS0005:IC50 (CS0005)	IC50 (CS0002) [µM]	IC50 (MV4,11 cells; Homo sapiens, MV4-11) [µM]
Cc1nc(-c2ccc(Cl)cc2)sc1C(=O)Nc1ccc(NC(=O)Nc2cc(C(C)(C)C)on2)cc1 [Compound N184]	+ + + +	+ + + +	+ +	–	–	–	–
CC(C)(C)c1cc(NC(=O)Nc2ccc(OCc3cccc(Cl)c3)cc2)no1 [Compound G11]	–	+ + + +	–	+ + + +	+ + +	–	–
CC(C)(C)c1cnc(CSc2cnc(NC(=O)Nc3ccon3)s2)o1	+ + +	+ + +	+ +	–	–	–	–
CC(C)(C)c1cc(NC(=O)Nc2ccc(Nc3cc(N)nc(N)n3)cc2)no1 [Compound O7]	+ + + +	+ + + +	–	–	–	> 10	–
CC(C)c1sc(Cl)nc1C(=O)Nc1ccc(NC(=O)Nc2cc(C(C)(C)C)on2)cc1 [Compound N75]	+ + + +	–	+ +	–	–	–	> 10
CC(C)(C)c1cc(NC(=O)Nc2ccc(NC(=O)c3ccc(Cl)cc3)cc2)no1 [Compound N26]	–	+ +	–	+ +	+ + +	–	–
CC(C)(C)c1cc(NC(=O)Nc2ccc(NC(=O)c3ccccc3)cc2)no1 [Compound N34]	–	+ + + +	–	+ + + +	+ + + +	–	–
CC(C)(C)c1cc(NC(=O)Nc2ccc(N3C(=O)c4ccccc4C3=O)cc2)no1 [Compound A57]	+ + +	+ + + +	–	–	–	> 10	–
CC(C)(C)c1cc(NC(=O)Nc2ccc(NC(=O)c3ccc(Oc4ccnc(C(=O)O)c4)cc3)cc2)no1 [Compound N166]	+ + + +	+ + +	+ +	–	–	–	–
CC(C)(C)c1cc(NC(=O)Nc2ccc(OCc3ccc(-c4ccccc4)cc3)cc2)no1 [Compound G56]	–	+ + + +	–	+ + + +	+ + + +	–	–
CC(C)(C)c1cc(NC(=O)Nc2ccc(NC(=O)c3ccc4ccccc4c3)cc2)no1 [Compound N28]	–	+ + + +	–	+ + + +	+ + + +	–	–
CCOC(=O)c1cccc(C(=O)Nc2ccc(NC(=O)Nc3cc(C(C)(C)C)on3)cc2)n1 [Compound N164]	+ + + +	+ + + +	+ +	–	–	–	–
Cn1nc(C(F)(F)F)c2cc(C(=O)Nc3ccc(NC(=O)Nc4cc(C(C)(C)C)on4)cc3)sc21 [Compound N64]	–	+ + +	–	+ + + +	–	> 10	–
CC(C)(C)c1cc(NC(=O)Nc2ccc(OCc3ccccc3)cc2)on1 [Compound G30]	–	+ + + +	+ +	+ + + +	–	–	–
CC(C)(C)c1cc(NC(=O)Nc2ccc(NC(=O)c3cc4cc(Br)ccc4s3)cc2)no1 [Compound N17]	–	+ + + +	+ +	+ + + +	–	–	–
COc1cc(OC)nc(N(C)c2cccc(C(=O)Nc3ccc(NC(=O)Nc4ccon4)cc3)c2)n1 [Compound N53]	–	+ + +	+ +	+ + + +	–	–	–
Cc1nc(-c2ccccc2)sc1C(=O)Nc1ccc(NC(=O)Nc2cc(C(C)(C)C)on2)cc1 [Compound N181]	+ + + +	+ + + +	+ +	–	–	–	–
COc1cc(OC)nc(Nc2cccc(C(=O)Nc3ccc(NC(=O)Nc4cc(C(C)(C)C)on4)cc3)c2)n1 [Compound N49]	–	+ + + +	+ + +	+ + + +	–	–	–
COc1cc(OC)nc(Sc2ccccc2C(=O)Nc2ccc(NC(=O)Nc3cc(C(C)(C)C)on3)cc2)n1 [Compound N47]	–	+ + +	+ + +	+ + + +	–	–	–

Structure (SMILES)	Binding Assay: FLT3(JMminus) (FLT3)	Cell Assay: CS0001:IC50 (MV4,11 cells)	Cell Assay: CS0002:IC50 (CS0002)	Binding Assay: FLT3(DKIN) (FLT3)	Cell Assay: CS0005:IC50 (CS0005)	IC50 (CS0002) [µM]	IC50 (MV4,11 cells; Homo sapiens, MV4-11) [µM]
Cc1ccc(-c2nc(C(=O)Nc3ccc(NC(=O)Nc4cc(C(C)(C)C)on4)cc3)cs2)cc1 [Compound N178]	+ + + +	+ + +	+ +	–	–	–	–
CC(C)(C)c1cc(NC(=O)Nc2ccc([N+](=O)[O-])cc2)no1 [Compound A21]	+ + +	+ + +	+ +	–	–	–	–
CC(C)(C)c1cc(NC(=O)Nc2ccc(NC(=O)c3nocc3C(C)(C)C)cc2)no1 [Compound N82]	+ + +	+ + +	+ +	–	–	–	–
CC(C)(C)c1cc(NC(=O)Nc2ccc3c(c2)OCO3)no1 [Compound A56]	+ + +	+ + +	–	–	–	> 10	–
Cn1nc(C(F)(F)F)c(C(=O)Nc2ccc(NC(=O)Nc3cc(C(C)(C)C)on3)cc2)c1Cl [Compound N68]	–	+ + +	+ + +	+ + + +	–	–	–
COC(=O)c1cccc(Sc2ncc(NC(=O)Nc3cc(C(C)(C)C)on3)s2)c1 [Compound O8]	+ + + +	+ + +	+ +	–	–	–	–
CC(C)(C)c1cc(NC(=O)Nc2ccc(NC(=O)c3cc([N+](=O)[O-])ccn3)cc2)no1 [Compound N7]	–	–	–	+ + + +	–	> 10	–
CC(C)(C)c1cc(NC(=O)Nc2ccc(C(=O)/C=C/c3ccncc3)cc2)no1	+ + + +	+ + +	–	–	–	> 10	–
CC(C)(C)c1cc(NC(=O)Nc2ccc(NC(=O)c3ccccc3Cl)cc2)no1 [Compound N23]	–	+ + + +	+ +	+ + + +	–	–	–
CC(C)c1cc(NC(=O)Nc2ccc(NC(=O)C3CCN(c4ncc(C(F)(F)F)cc4Cl)CC3)cc2)no1 [Compound N59]	–	+ + + +	–	+ + +	–	> 10	–
CC(C)(C)c1cc(NC(=O)Nc2ccc(NC(=O)c3cccnc3C(=O)O)cc2)no1 [Compound N165]	+ + +	+ + + +	–	–	–	> 10	–
Cc1nc(-c2cccnc2)sc1C(=O)Nc1ccc(NC(=O)Nc2cc(C(C)C)on2)cc1 [Compound N48]	–	+ + + +	+ +	+ + + +	–	–	–
CC(C)(C)c1cc(NC(=O)Nc2ccc(NC(=O)Cc3sc(-c4ccc(Cl)cc4)nc3-c3ccccc3)cc2)no1 [Compound N66]	–	+ + +	–	+ + + +	–	–	–
CC(C)(C)c1cc(NC(=O)Nc2ccc(NC(=O)c3nccnc3C(N)=O)cc2)no1 [Compound N138]	–	+ +	–	+ + + +	–	> 10	–
CCc1ccc(C(=O)Nc2ccc(NC(=O)Nc3cc(C(C)(C)C)on3)cc2)cc1 [Compound N32]	–	+ + +	–	+ + + +	–	> 10	–
CC(C)(C)c1cc(NC(=O)Nc2ccc(OCc3ccccc3-c3ccccc3)cc2)no1 [Compound G8]	–	+ +	–	+ + +	–	–	–
CC(C)(C)c1cc(NC(=O)Nc2ccc(NC(=O)CCc3ccccc3)cc2)no1 [Compound N96]	–	+ + + +	–	+ + + +	–	–	–
CC(C)(C)c1cc(NC(=O)Nc2ccc(NC(=O)c3nn(-c4cccc(C(F)(F)F)c4)c(=O)cc3O)cc2)no1 [Compound N185]	+ + +	+ +	–	–	–	–	–
